Data published in PMC9188596, “Structural basis of resistance to herbicides that target acetohydroxyacid synthase” (Nature Communications, 2022).
Values joined by “and” are separate entries in the source; they are usually repeats but may differ in a detail not shown here. Equal entries are not always repeated. “Also recorded” adds a separate entry of the source. Where two headings read alike, the source gives them in different places.

Tests used:
AtAHAS P197L mutant [1] = target: T1, AtAHAS P197L mutant (Arabidopsis thaliana, UniProt P17597, P197L); experiment: biochemical
Protocol: (§1) Standard assays were performed using a continuous spectrophotometric method measuring the disappearance of pyruvate. The standard buffer contained 50 mM potassium phosphate, pH 7.2, 1 mM ThDP, 10 mM MgCl2, and 10 µM FAD. The concentration of pyruvate was in the range 100–160 mM, as described in the text, methods, or figure legends.
(§2) Supplementary Figure 6. Measurement of the Ki values for WT AtAHAS and the mutants.
(§3) The error bars represent the standard error of the mean of two independent replicates. [I] =
(§4) inhibitor concentration. Source data are provided with this paper.
(§5) (1 picture or pasted object on this page, not shown here)

AtAHAS P197T mutant [2] = target: T2, AtAHAS P197T mutant (Arabidopsis thaliana, UniProt P17597, P197T); experiment: biochemical
Protocol: as §1, §2, §3, §4, §5

AtAHAS S653T mutant [3] = target: T3, AtAHAS S653T mutant (Arabidopsis thaliana, UniProt P17597, S653T); experiment: biochemical
Protocol: as §1, §2, §3, §4, §5

AtAHAS W574L mutant [4] = target: T4, AtAHAS W574L mutant (Arabidopsis thaliana, UniProt P17597, W574L); experiment: biochemical; conditions: for increase in Ki / loss of affinity compared to WT: W574L vs WT
Protocol: as §1, §2, §3, §4, §5

WT AtAHAS [5] = target: T5, WT AtAHAS (Arabidopsis thaliana, UniProt P17597); type: biochemical; conditions: for k3 (rate of recovery) / kiapp (apparent rate of enzyme inactivation): 160 mM pyruvate, 30 °C, ± SEM; for k3, single progress curve (Supplementary Figure 8) / kiapp, single progress curve (Supplementary Figure 8): individual replicate of triplicate
Protocol: as §1
(§6) AtAHAS was assayed in the standard assay buffer containing 160 mM pyruvate, at 30 °C. For AtAHAS activation the progress curve corresponding to the lag-phase was fitted to Eq. (8) of Lonhienne et al.[14]. For the time dependent accumulative inhibition of AtAHAS the progress curves were fitted to Equation 9 of Lonhienne et al.[12].
Supplementary Figure 8. Measurement of the rate constants of accumulative inhibition for WT AtAHAS and its mutants. The progress curves were fitted to the equation of accumulative inhibition (Equation 7 2). The rate constants of enzyme inactivation ( kiapp) and enzyme recovery (k3) were measured in triplicate. Source data are provided with this paper.

AtAHAS P197L mutant [6] = target: T1, AtAHAS P197L mutant; type: biochemical; conditions: for k3 (rate of recovery) / kiapp (apparent rate of enzyme inactivation): 160 mM pyruvate, 30 °C; for k3 (rate of recovery) / kiapp (apparent rate of enzyme inactivation) / kiapp/k3 (efficiency of accumulative inhibition): NAI = no accumulative inhibition detected; for k3, single progress curve (Supplementary Figure 8) / kiapp, single progress curve (Supplementary Figure 8): individual replicate of triplicate
Protocol: as §1, §6
(§7) Supplementary Figure 8. Measurement of the rate constants of accumulative inhibition for WT AtAHAS and its mutants. The progress curves were fitted to the equation of accumulative inhibition (Equation 7 2). The rate constants of enzyme inactivation ( kiapp) and enzyme recovery (k3) were measured in triplicate. Source data are provided with this paper. […]

AtAHAS P197T mutant [7] = target: T2, AtAHAS P197T mutant; type: biochemical; conditions: for k3 (rate of recovery) / kiapp (apparent rate of enzyme inactivation) / kiapp/k3 (efficiency of accumulative inhibition) / k3, single progress curve (Supplementary Figure 8) / kiapp, single progress curve (Supplementary Figure 8): P197T; for k3 (rate of recovery) / kiapp (apparent rate of enzyme inactivation): 160 mM pyruvate, 30 °C; for k3 (rate of recovery) / kiapp (apparent rate of enzyme inactivation) / kiapp/k3 (efficiency of accumulative inhibition): NAI = no accumulative inhibition detected; for k3, single progress curve (Supplementary Figure 8) / kiapp, single progress curve (Supplementary Figure 8): individual replicate of triplicate
Protocol: as §1, §6, §7

AtAHAS S653T mutant [8] = target: T3, AtAHAS S653T mutant; type: biochemical; conditions: for kiapp/k3 (efficiency of accumulative inhibition) / k3 (rate of recovery) / kiapp (apparent rate of enzyme inactivation) / k3, single progress curve (Supplementary Figure 8) / kiapp, single progress curve (Supplementary Figure 8): S653T; for k3 (rate of recovery) / kiapp (apparent rate of enzyme inactivation): 160 mM pyruvate, 30 °C, ± SEM; for k3, single progress curve (Supplementary Figure 8) / kiapp, single progress curve (Supplementary Figure 8): individual replicate of triplicate
Protocol: as §1, §6, §7

AtAHAS W574L mutant [9] = target: T4, AtAHAS W574L mutant; type: biochemical; conditions: for k3 (rate of recovery) / kiapp (apparent rate of enzyme inactivation): 160 mM pyruvate, 30 °C; for k3 (rate of recovery) / kiapp (apparent rate of enzyme inactivation) / kiapp/k3 (efficiency of accumulative inhibition): NAI = no accumulative inhibition detected
Protocol: as §1, §6, §7

WT AtAHAS [10] = target: T5, WT AtAHAS; conditions: cited from earlier work
[11] = Ki (Supplementary Figure 6), P197L, fit of % activity remaining vs [I], two independent replicates
[12] = Ki, P197L mutant, ± standard error of the mean
[13] = Ki (Supplementary Figure 6), P197T, fit of % activity remaining vs [I], two independent replicates
[14] = Ki, P197T mutant, ± standard error of the mean
[15] = Ki, S653T mutant, ± standard error of the mean
[16] = Ki, W574L mutant, ± standard error of the mean
[17] = individual replicate of triplicate
[18] = ± standard error of the mean, ref Garcia et al.[13]

## COc1cc(OC)nc(Oc2cccc(Oc3nc(OC)cc(OC)n3)c2C(=O)O)n1 [BS, bispyribac]
AtAHAS P197L mutant [1]; [11]
  Ki: 0.115 ± 0.0134 µM
AtAHAS P197L mutant [1]; [12]
  Ki: 0.115 ± 0.013 µM
AtAHAS P197L mutant [1]; P197L vs WT
  loss of affinity: ~ 50%
AtAHAS P197T mutant [2]; [13]
  Ki: 0.106 ± 0.00483 µM
AtAHAS P197T mutant [2]; [14]
  Ki: 0.106 ± 0.0048 µM
AtAHAS P197T mutant [2]; P197T vs WT
  increase in Ki / loss of affinity compared to WT: around three-fold
  loss of affinity: ~ 50%
AtAHAS S653T mutant [3]; [15]
  Ki: 0.09 ± 0.0131 µM
AtAHAS S653T mutant [3]; S653T vs WT
  loss of affinity: ~ 50%
AtAHAS W574L mutant [4]; Ki (Supplementary Figure 6), W574L, fit of % activity remaining vs [I], two independent replicates
  Ki: 6.11 ± 0.988 µM
AtAHAS W574L mutant [4]; [16]
  Ki: 6.1 ± 1 µM
AtAHAS W574L mutant [4]
  increase in Ki / loss of affinity compared to WT: 150 fold
WT AtAHAS [5]
  kiapp/k3 (efficiency of accumulative inhibition): 18
  k3 (rate of recovery): 0.018 ± 0.002 min⁻¹
  kiapp (apparent rate of enzyme inactivation): 0.32 ± 0.03 min⁻¹
  k3, single progress curve (Supplementary Figure 8): 0.022 min⁻¹ and 0.018 min⁻¹ and 0.014 min⁻¹
  kiapp, single progress curve (Supplementary Figure 8): 0.38 min⁻¹ and 0.28 min⁻¹ and 0.3 min⁻¹
AtAHAS P197L mutant [6]
  k3 (rate of recovery): 0.037 ± 0.003 min⁻¹
  kiapp (apparent rate of enzyme inactivation): 1.15 ± 0.09 min⁻¹
  kiapp/k3 (efficiency of accumulative inhibition): 31
  k3, single progress curve (Supplementary Figure 8): 0.043 min⁻¹ and 0.036 min⁻¹ and 0.032 min⁻¹
  kiapp, single progress curve (Supplementary Figure 8): 1.33 min⁻¹ and 1.1 min⁻¹ and 1.03 min⁻¹
AtAHAS P197T mutant [7]
  k3 (rate of recovery): 0.031 ± 0.004 min⁻¹
  kiapp (apparent rate of enzyme inactivation): 1.14 ± 0.11 min⁻¹
  kiapp/k3 (efficiency of accumulative inhibition): 37
  k3, single progress curve (Supplementary Figure 8): 0.035 min-1 (2×) and 0.023 min-1
  kiapp, single progress curve (Supplementary Figure 8): 1.09 min⁻¹ and 0.98 min⁻¹ and 1.34 min⁻¹
AtAHAS P197T mutant [7]; P197 mutant vs WT (kiapp/k3)
  increase in efficiency of accumulative inhibition compared to WT: two-fold
AtAHAS S653T mutant [8]
  kiapp/k3 (efficiency of accumulative inhibition): 39
  k3 (rate of recovery): 0.017 ± 0.001 min⁻¹
  kiapp (apparent rate of enzyme inactivation): 0.66 ± 0.04 min⁻¹
  k3, single progress curve (Supplementary Figure 8): 0.018 min⁻¹ and 0.019 min⁻¹ and 0.015 min⁻¹
  kiapp, single progress curve (Supplementary Figure 8): 0.59 min⁻¹ and 0.71 min⁻¹ and 0.69 min⁻¹
AtAHAS S653T mutant [8]; S653T vs WT
  efficiency of accumulative inhibition (kiapp/k3) compared to WT (in words): increased
AtAHAS W574L mutant [9]
  accumulative inhibition (in words): irreversible; also recorded: still can promote accumulative inhibition
  k3 (rate of recovery): <1e-12 min⁻¹
  kiapp (apparent rate of enzyme inactivation): 0.03 ± 0.006 min⁻¹
  kiapp/k3 (efficiency of accumulative inhibition): >10^11
AtAHAS W574L mutant [9]; [17]
  k3, single progress curve (Supplementary Figure 8): ~ 0 min-1
  kiapp, single progress curve (Supplementary Figure 8): 0.043 min⁻¹ and 0.026 min⁻¹ and 0.025 min⁻¹
WT AtAHAS [10]; [18]
  Ki: 0.041 ± 0.006 µM

## CC(C)C1(C)N=C(c2nc3ccccc3cc2C(=O)O)NC1=O (stereo not shown) [IQ, imazaquin]
AtAHAS P197L mutant [1]; [11]
  Ki: 13.8 ± 1.14 µM
AtAHAS P197L mutant [1]; [12]
  Ki: 13.8 ± 1.1 µM
AtAHAS P197T mutant [2]; [13]
  Ki: 12.4 ± 1.83 µM
AtAHAS P197T mutant [2]; [14]
  Ki: 12.4 ± 1.8 µM
AtAHAS S653T mutant [3]; Ki (Supplementary Figure 6), S653T, fit of % activity remaining vs [I], two independent replicates
  Ki: 240 ± 25.5 µM
AtAHAS S653T mutant [3]; [15]
  Ki: 240 ± 26 µM
AtAHAS S653T mutant [3]; S653T vs WT
  increase in Ki compared to WT: more than 10 fold
AtAHAS W574L mutant [4]; [16]
  Ki: 704 ± 58.5 µM
AtAHAS W574L mutant [4]
  increase in Ki / loss of affinity compared to WT: 38 fold
WT AtAHAS [5]
  accumulative inhibition (in words): irreversible
  kiapp/k3 (efficiency of accumulative inhibition): >10^11
  k3 (rate of recovery): <1e-12 min⁻¹
  kiapp (apparent rate of enzyme inactivation): 0.86 ± 0.03 min⁻¹
  k3, single progress curve (Supplementary Figure 8): ~ 0 min-1
  kiapp, single progress curve (Supplementary Figure 8): 0.86 min⁻¹ and 0.92 min⁻¹ and 0.83 min⁻¹
AtAHAS P197L mutant [6]
  k3 (rate of recovery): <1e-12 min⁻¹
  kiapp (apparent rate of enzyme inactivation): 0.26 ± 0.008 min⁻¹
  kiapp/k3 (efficiency of accumulative inhibition): >10^11
  k3, single progress curve (Supplementary Figure 8): ~ 0 min-1
  kiapp, single progress curve (Supplementary Figure 8): 0.25 min-1 (2×) and 0.26 min-1
AtAHAS P197T mutant [7]
  k3 (rate of recovery): <1e-12 min⁻¹
  kiapp (apparent rate of enzyme inactivation): 0.27 ± 0.012 min⁻¹
  kiapp/k3 (efficiency of accumulative inhibition): >10^11
  k3, single progress curve (Supplementary Figure 8): ~ 0 min-1
  kiapp, single progress curve (Supplementary Figure 8): 0.29 min-1 and 0.28 min-1 (2×)
AtAHAS S653T mutant [8]
  kiapp/k3 (efficiency of accumulative inhibition): >10^11
  k3 (rate of recovery): <1e-12 min⁻¹
  kiapp (apparent rate of enzyme inactivation): 0.37 ± 0.017 min⁻¹
  k3, single progress curve (Supplementary Figure 8): ~ 0 min-1
  kiapp, single progress curve (Supplementary Figure 8): 0.34 min⁻¹ and 0.38 min⁻¹ and 0.39 min⁻¹
AtAHAS W574L mutant [9]
  k3 (rate of recovery): NAI
  kiapp (apparent rate of enzyme inactivation): NAI
  kiapp/k3 (efficiency of accumulative inhibition): NAI
WT AtAHAS [10]
  Ki: 18 µM
WT AtAHAS [10]; [18]
  Ki: 18.5 ± 2 µM
